Measured values taken from patent publication US20080058300A1, “Induction of weight loss and the selective inhibition of PTP1B” (priority 2006, published 2008).

What was measured:
[1] = biological target: T1, CHO-K1 cells expressing dopamine transporters (Homo sapiens, UniProt Q01959); assay: Cellular uptake of [3H] Dopamine; format: cell-based
T1 construct: expressed in transfected cells; host or cells: CHO-K1 cells
Experimental: (§1) After 10-minute incubations of the cells with radioactive ligands in the presence of compound at room temperature, quantitation of [^3H] Dopamine or [^3H] […] Significance criteria for antagonism was met if there was ≧50% inhibition of uptake as compared to the induced response of nomifensine (DAT) or desipramine (NET).

[2] = biological target: T2, MDCK cells expressing norepinephrine transporters (Homo sapiens, UniProt P23975); assay: Cellular uptake of [3H] Norepinephrine; format: cell-based
T2 construct: expressed in transfected cells; host or cells: MDCK cells
T2 sequence (P23975 whole entry): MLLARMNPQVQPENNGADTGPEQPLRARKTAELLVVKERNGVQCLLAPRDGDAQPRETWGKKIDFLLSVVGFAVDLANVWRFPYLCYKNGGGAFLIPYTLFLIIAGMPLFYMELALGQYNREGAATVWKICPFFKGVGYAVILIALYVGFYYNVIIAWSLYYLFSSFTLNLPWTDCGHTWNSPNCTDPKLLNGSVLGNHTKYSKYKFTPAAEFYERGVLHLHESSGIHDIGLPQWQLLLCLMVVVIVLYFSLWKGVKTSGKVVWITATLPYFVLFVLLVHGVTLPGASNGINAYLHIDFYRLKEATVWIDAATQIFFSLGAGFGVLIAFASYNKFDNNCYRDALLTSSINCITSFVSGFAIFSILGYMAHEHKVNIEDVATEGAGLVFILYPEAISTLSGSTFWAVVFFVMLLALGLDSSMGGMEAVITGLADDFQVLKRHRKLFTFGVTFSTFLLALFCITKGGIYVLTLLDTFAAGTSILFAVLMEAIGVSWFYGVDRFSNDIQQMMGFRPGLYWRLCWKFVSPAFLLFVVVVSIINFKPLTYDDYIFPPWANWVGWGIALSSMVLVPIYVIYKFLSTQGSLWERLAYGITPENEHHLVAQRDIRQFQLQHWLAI
Experimental: as §1

[3] = test system: male AKR/J mice on 60% fat diet; assay: Histology of adipose tissue in mice on 60% fat diet; format: in vivo; settings: mouse on 60% fat diet; i.p. q7dx4, 10 then 5 mg/kg
Text: (§2) Mice and Study Design. At weaning, male AKR/J mice from Jackson Laboratories (Bar Harbor, Me., USA) were placed on a 10%, 45%, or 60% fat kcal diet (Research Diets, Inc., New Brunswick, N.J., USA). Mice were weighed weekly and treatment began after 13-14 weeks of access to the different fat diets. Immediately before the start of treatment, mice from all three diets were randomly subdivided further into three groups within the same fat composition diet with an even weight distribution. All mice were dosed (i.p. route) on a q7dx4 schedule, where the first dose of 1436 was 10 mg/kg and all remaining doses were 5 mg/kg. Saline-treated animals were administered 10 mL/kg. Pair-fed animals were dosed with saline (10 mL/kg) on the same q7dx4 schedule on a 1-day stagger from the other groups. As a measure of food consumption, remaining food was weighed daily. Pair-fed groups were allotted the exact amount of food consumed by 1436-treated groups in the 24 hours prior. All procedures involving mice were performed in accordance with protocols approved by the Institutional Animal Care and Use Committee.
Histology. Intrascapular brown adipose tissue was fixed in 10% zinc formalin (Fisher Scientific, Kalamazoo, Mich., USA) for 48 hours and transferred to 70% EtOH. Tissues were embedded in paraffin and […] sections were applied to glass microscope slides. […]

ob/ob mice = assay: Ex vivo liver IRS-1 phosphorylation in ob/ob mice (effect on PTP1B); settings: single dose 10 mg/kg i.p., 24 hours after treatment, livers harvested 2 min after portal vein insulin
Experimental: To examine the effect of MSI-1436 on PTP1B ex vivo, ob/ob mice were treated with either vehicle, MSI-1436 (single dose, 10 mg/kg, i.p.) or pair-fed control mice (n=4 per group). Twenty-four hours after the single treatment, mice were anesthetized and portal vein was exposed via an incision. Insulin or phosphate buffered saline (PBS) was injected into the portal vein and livers were harvested 2 min after the injection. Livers were lysed and lysates were immunoprecipitated with anti-insulin receptor substrate-1 (IRS-1) and then blotted for phosphotyrosine with the resultant blots representing phosphorylated insulin receptor substrate-1 (P-IRS-1). The blots were analyzed using imaging software.

HepG2 cells = assay: Insulin receptor-beta phosphorylation in HepG2 cells (immunoprecipitation, Western blot); format: cell-based
Experimental: HepG2 cells (immortalized hepatocyte cells) were treated with 10 nM insulin, […], neither, or both for either 30 minutes or 3 hours in vitro. […] No difference in the amounts of insulin receptor-beta (IR-beta) was noted (Panel A). […] This effect was slightly diminished at 3 hours.

[4] = test system: male AKR/J mice on 10%, 45% or 60% fat kcal diet; assay: Body composition of diet induced obese mice at end of study; format: in vivo; settings: i.p. q7dx4, 10 then 5 mg/kg
Text: as §2, with “Pair-fed groups were allotted the exact amount of food consumed by 1436-treated groups in the 24 hours prior. All procedures involving mice were performed in accordance with protocols approved by the Institutional Animal Care and Use Committee.” left out
Body Composition. Body composition (percent moisture, fat, protein and ash) was determined according to methods described with modifications (Official Methods of Analysis of AOAC INTERNATIONAL, 2000). […] Protein was determined through the combustion method for nitrogen detection and a factor of 6.25 was used to convert percent nitrogen to percent protein. To determine ash, samples were ignited at 550° C. for 5 hours and quantified gravimetrically.

[5] = biological target: T3, Dopamine Transporter (DAT) (Homo sapiens, UniProt Q01959); assay: Radioligand binding assay, [125I] RTI-55, Dopamine Transporter; settings: human recombinant, CHO-K1 cell membranes; [125I] RTI-55 0.15 nM; 3 hours at 4° C.; read-out: ˜IC50, inhibition of binding to DAT
T3 construct: expressed in transfected cells; host or cells: CHO-K1 cells (membrane preparations)
T3 sequence (Q01959 whole entry): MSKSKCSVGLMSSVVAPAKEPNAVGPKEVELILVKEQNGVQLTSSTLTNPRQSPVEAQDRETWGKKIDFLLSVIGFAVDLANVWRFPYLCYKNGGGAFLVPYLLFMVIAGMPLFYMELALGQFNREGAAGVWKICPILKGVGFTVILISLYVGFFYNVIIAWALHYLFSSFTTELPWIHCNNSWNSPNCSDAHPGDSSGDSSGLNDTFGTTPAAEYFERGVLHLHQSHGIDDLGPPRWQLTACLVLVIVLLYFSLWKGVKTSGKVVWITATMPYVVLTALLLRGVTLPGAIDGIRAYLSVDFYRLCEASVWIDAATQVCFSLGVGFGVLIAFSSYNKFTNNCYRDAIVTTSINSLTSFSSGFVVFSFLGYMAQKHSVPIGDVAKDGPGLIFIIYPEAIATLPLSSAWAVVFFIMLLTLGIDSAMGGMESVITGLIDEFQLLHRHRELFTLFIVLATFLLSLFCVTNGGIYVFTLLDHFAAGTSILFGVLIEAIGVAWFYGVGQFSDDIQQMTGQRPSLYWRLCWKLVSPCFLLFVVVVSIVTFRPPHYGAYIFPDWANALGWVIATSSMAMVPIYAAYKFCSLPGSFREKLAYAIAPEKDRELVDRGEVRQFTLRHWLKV
Experimental: (§3) Inhibition of binding to the Dopamine Transporter (DAT) and Norepinephrine Transporter (NET) by MSI-1436 was determined in radioligand binding assays using human recombinant proteins expressed in CHO-K1 or MDCK cells, respectively. Membrane preparations were incubated with [^125I] RTI-55 (0.15 nM for DAT, 0.20 nM for NET) in the presence of 1436 (0.005 μM to 50 μM) for 3 hours at 4° C. IC50 values were determined as in PTP1B assays (See Table 2).

[6] = biological target: T4, Norepinephrine Transporter (NET) (Homo sapiens, UniProt P23975); assay: Radioligand binding assay, [125I] RTI-55, Norepinephrine Transporter; settings: human recombinant, MDCK cell membranes; [125I] RTI-55 0.20 nM; 3 hours at 4° C.; read-out: ˜IC50, inhibition of binding to NET
T4 construct: expressed in transfected cells; host or cells: MDCK cells (membrane preparations)
T4 sequence (P23975 whole entry): as the sequence (P23975 whole entry) above
Experimental: as §3

[7] = test system: male AKR/J mice on 10%, 45% or 60% fat kcal diet; assay: Induction of weight loss in diet induced obese mice; format: in vivo
Text: as §2

TCPTP = biological target: T5, TCPTP (Homo sapiens, UniProt P17706); assay: TCPTP enzyme inhibition assay (DiFMUP substrate, spectrofluorimetric); format: biochemical
T5 construct: MDS Pharma (contract assay); host or cells: E. coli
T5 sequence (P17706 1-415): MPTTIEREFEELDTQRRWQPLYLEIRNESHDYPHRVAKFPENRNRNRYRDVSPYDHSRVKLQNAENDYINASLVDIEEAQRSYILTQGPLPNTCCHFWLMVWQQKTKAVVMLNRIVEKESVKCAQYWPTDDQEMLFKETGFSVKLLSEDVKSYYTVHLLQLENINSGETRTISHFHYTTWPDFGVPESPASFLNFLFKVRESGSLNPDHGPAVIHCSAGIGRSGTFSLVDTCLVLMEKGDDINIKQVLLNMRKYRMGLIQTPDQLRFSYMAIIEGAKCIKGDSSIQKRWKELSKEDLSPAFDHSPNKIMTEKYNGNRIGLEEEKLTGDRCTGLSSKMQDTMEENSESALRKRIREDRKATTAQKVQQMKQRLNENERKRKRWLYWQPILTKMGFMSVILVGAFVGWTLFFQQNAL
Experimental: In the PTP1B assay, phosphatase activity was quantitated through ELISA analysis of remaining tyrosine phosphopeptide after 30-minute incubations at room temperature with various concentrations of 1436 (0.05 μM to […]). […] The TCPTP assay required a 15-minute preincubation of enzyme and substrate at 37° C. followed by 60-minute incubations at 37° C. with various concentrations of 1436 (0.5 μM to 50 μM). TCPTP activity was assessed by spectrofluorimetric quantitation of DiFMU.

T1 sequence (Q01959 whole entry): as the sequence (Q01959 whole entry) above

## CC(C)[C@@H](CC[C@@H](C)[C@H]1CC[C@H]2[C@@H]3[C@H](O)C[C@H]4C[C@@H](NCCCNCCCCNCCCN)CC[C@]4(C)[C@H]3CC[C@]12C)OS(=O)(=O)O [compound 1436]
[1]; CHO-K1, 1436 0.05 μM
  inhibition at 0.05 µM: 1%
[1]; CHO-K1, 1436 0.25 μM
  inhibition at 0.25 µM: 39%
[1]; CHO-K1, 1436 0.5 μM
  inhibition at 0.5 µM: 57%
[1]; CHO-K1, 1436 2.5 μM
  inhibition at 2.5 µM: 81%
[1]; CHO-K1, 1436 5.0 μM
  inhibition at 5 µM: 94%
[1]; CHO-K1 cells, 10-minute incubation at room temperature, read-out: IC50, inhibition of Dopamine uptake
  IC50: 0.422 µM
[2]; MDCK cells, 10-minute incubation at room temperature, read-out: IC50, inhibition of Norepinephrine uptake
  IC50: 0.718 µM
[2]; MDCK, 1436 0.05 μM
  inhibition at 0.05 µM: 22%
[2]; MDCK, 1436 0.25 μM
  inhibition at 0.25 µM: 26%
[2]; MDCK, 1436 0.5 μM
  inhibition at 0.5 µM: 33%
[2]; MDCK, 1436 2.5 μM
  inhibition at 2.5 µM: 78%
[2]; MDCK, 1436 5.0 μM
  inhibition at 5 µM: 95%
[3]
  amount of fat in brown adipose tissue (BAT), histology: lost all of the fat gained by the 60% diet
  amount of fat in white adipose tissue (WAT), histology: lost all of the fat gained by the 60% diet
ob/ob mice
  insulin-induced phosphorylation of IRS-1 in liver: enhanced the insulin-induced phosphorylation of IRS-1
HepG2 cells; 10 nM insulin and 10 µM MSI-1436, 30 minutes
  IR-beta phosphorylation, insulin plus MSI-1436 versus insulin alone: increased IR-beta phosphorylation
HepG2 cells; 10 µM MSI-1436 without insulin, 30 minutes or 3 hours
  IR-beta phosphorylation, MSI-1436 alone: did not induce phosphorylation
[4]; all diets (10%, 45%, 60% fat)
  % body fat (body composition at end of study): lose significant % body fat
[4]
  loss of body fat versus pair-fed groups: trend for greater loss of body fat
[5]
  IC50: 1.74 µM
[6]
  IC50: 3.24 µM
[7]; 10%, 45% and 60% fat diet groups, i.p. q7dx4, first dose 10 mg/kg, remaining 5 mg/kg, three weeks
  body weight after treatment: lost weight
[7]; i.p. q7dx4, 10 then 5 mg/kg, greatest in 60% fat group (p value 0.013)
  effect on weight loss versus pair-fed group: greater than the effect of diet alone
TCPTP; 1436 0.5 μM to 50 μM
  inhibition of TCPTP at the concentrations tested: no inhibition
TCPTP; human recombinant protein expressed in E. Coli, DiFMUP 10 μM, 60-minute incubation at 37° C., estimated
  IC50: > 50 µM
